Holding throughout (experiment): NCI-60 cell line screen, 48 h
The test system of assay [1] is LOX IMVI.
Assay [2] deals with NCI-H226.
For assay [3], the system named is SF-268.
The test system of assay [4] is SF-295.
In assay [5] the test system is Malme-3M.
Assay [6] concerns UACC-257.
Assay [7] relates to UACC-62.
Assay [8] relates to NCI-H522.
Assay [9] concerns OVCAR-5.
Assay [10] deals with ACHN.
Assay [11] concerns SF-539.
In assay [12] the test system is CAKI-1.
Assay [13] has as its system BT-549.
Assay [14] has as its system SW-620.
Assay [15] has as its system MDA-MB-435.
In assay [16] the test system is A549.
Assay [17] deals with EKVX.
Assay [18] has as its system MOLT-4.
Assay [19] relates to UO-31.

SMILES strings stand for the structures.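 Cultured in 96-well plates, cells were exposed to test compound for 48 hours across five concentrations. Here, GI50 denotes the concentration required for 50% inhibition of growth.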 Active and inactive are the calls of the source. No stated cut-off is given here; in the data, active = GI50 up to about 1.1 µM and inactive = higher.

`[O-][Cl+3]([O-])([O-])[O-].[O-][Cl+3]([O-])([O-])[O-].c1ccn2c(N3CCCC3)[n+]3c4ccccc4n4c(N5CCCC5)[n+]5ccccc5c4c3c2c1`: the GI50 in [1] was > 100 µM (inactive); in assay [2], 0.745 µM (active); in assay [3] it was 15.3 µM (inactive); in assay [4], 46.3 µM (inactive); in assay [5], 36.2 µM (inactive); in assay [6] it was 34.6 µM (inactive). Besides, the GI50 is 41.8 µM (inactive) in [7]; 64.1 µM (inactive) in assay [8]; > 100 µM (inactive) in assay [9]; > 100 µM (inactive) in assay [10]; 57.9 µM (inactive) in assay [11]; > 100 µM (inactive) in assay [12]. Also, the GI50 in [13] was 30.9 µM (inactive); in assay [14], > 100 µM (inactive); in assay [15], > 100 µM (inactive); in assay [16], > 100 µM (inactive); in [17], > 100 µM (inactive); in [18] it was > 100 µM (inactive).

Turning to `C=C1C(=O)O[C@@H]2[C@@H]3O[C@@H](C[C@@H]13)[C@](C)(O)CC/C=C(\C)CCC[C@@H]2C`, the GI50 in assay [1] is 4.75 µM (inactive); in [2] it was 19.7 µM (inactive); in [3], 16.9 µM (inactive); in assay [4], 26.4 µM (inactive); in [5] it was 13.3 µM (inactive); in [6], 12.3 µM (inactive). Besides, the GI50 in assay [7] was 12.4 µM (inactive); in assay [8], 5.87 µM (inactive); in assay [9], 22 µM (inactive); in [10], 8.91 µM (inactive); in assay [11] it was 10.5 µM (inactive); in assay [12], 13 µM (inactive). Also, the GI50 in [13] was 12.6 µM (inactive); in assay [19], 10.8 µM (inactive); in [14], 5.46 µM (inactive); in assay [15], 7.87 µM (inactive); in assay [16] it was 17.4 µM (inactive); in [17], 15 µM (inactive). Besides, in assay [18], the GI50 was 3.35 µM (inactive).

For the compound `CC(C#N)(NO)C(C)(C#N)NO` (stereo unspecified), the GI50 is > 100 µM (inactive) in [1]; 97.9 µM (inactive) in assay [2]; > 100 µM (inactive) in assay [3]; > 100 µM (inactive) in [5]; > 100 µM (inactive) in [6]; > 100 µM (inactive) in [7]. The GI50 in assay [8], in assay [9], in assay [11], in assay [12], in assay [13] and in assay [19] was > 100 µM (inactive) each time. Further, the GI50 in assay [14], in assay [15], in [16], in assay [17] and in assay [18] was > 100 µM (inactive) throughout.

On to `O=C(CBr)c1ccc2cc(Br)c3ccccc3c2c1`, for which the GI50 in assay [1] was 36.3 µM (inactive); in [2] it was 9.33 µM (inactive); in assay [3] it was 20.3 µM (inactive); in assay [4], 24.4 µM (inactive); in assay [5], 15.9 µM (inactive); in [6], 24 µM (inactive). Also, the GI50 in assay [7] is 14.1 µM (inactive); in assay [8] it was 16.4 µM (inactive); in assay [9], 24.7 µM (inactive); in assay [10], 52.1 µM (inactive); in assay [11] it was 20.9 µM (inactive); in [12] it was 18.2 µM (inactive). The GI50 in assay [13] was 18.2 µM (inactive); in assay [19] it was 25.6 µM (inactive); in assay [14], 25.2 µM (inactive); in [15], 19.9 µM (inactive); in [16], 27.2 µM (inactive); in [17], 24.5 µM (inactive). Moreover, the GI50 in assay [18] is 4.25 µM (inactive).

In the case of `O=C1CSC(c2cccc([N+](=O)[O-])c2)N1c1ccc(-n2c(-c3ccccc3)nc3ccccc3c2=O)cc1` (stereo unspecified), the GI50 in [1] was > 100 µM (inactive); in [2], > 100 µM (inactive); in assay [3], 99.3 µM (inactive); in assay [4], > 100 µM (inactive); in assay [5], > 100 µM (inactive); in assay [6], > 100 µM (inactive). Moreover, the GI50 in assay [7] is 13.9 µM (inactive); in [8] it was > 100 µM (inactive); in assay [9], > 100 µM (inactive); in assay [10] it was > 100 µM (inactive); in [11] it was > 100 µM (inactive); in assay [12] it was > 100 µM (inactive). The GI50 in assay [13] was 28.2 µM (inactive); in [19] it was 3.76 µM (inactive); in assay [14] it was > 100 µM (inactive); in [15], > 100 µM (inactive); in assay [16], > 100 µM (inactive); in assay [17] it was > 100 µM (inactive). The GI50 in [18] was 83.8 µM (inactive).

In the case of `O=C1C(Cl)=CC2(C=C1Cl)CCNC1=C2C(=O)c2nc[nH]c2C1=O`, the GI50 in assay [1] was 20 µM (inactive); in assay [2] it was 75.2 µM (inactive); in assay [3], 54.6 µM (inactive); in [4] it was > 100 µM (inactive); in assay [5], 24.3 µM (inactive); in [6] it was 18.6 µM (inactive). For the same compound, the GI50 in [7] was 18.3 µM (inactive); in assay [8], 21.1 µM (inactive); in assay [9], > 100 µM (inactive); in [10] it was > 100 µM (inactive); in assay [11] it was 33.5 µM (inactive); in assay [12], 64.4 µM (inactive). For the same compound, the GI50 in assay [13] is 26.3 µM (inactive); in assay [19], > 100 µM (inactive); in [14], 26.9 µM (inactive); in assay [15] it was 18.2 µM (inactive); in assay [16], > 100 µM (inactive); in [17], 51.8 µM (inactive). In addition, in assay [18], the GI50 is 26.9 µM (inactive).

Consider `CCCCCCCCCCCCCCCCOCC(Cl)COP(=O)(O)OP(=O)(O)OCC1OC(n2cc(C)c(=O)[nH]c2=O)CC1O` (stereo unspecified), for which the GI50 in assay [1] is > 100 µM (inactive); in assay [2], 28.8 µM (inactive); in assay [3] it was 69.2 µM (inactive); in assay [4], 57 µM (inactive); in assay [5], > 100 µM (inactive); in assay [6] it was > 100 µM (inactive). The GI50 in assay [8] is > 100 µM (inactive); in [9] it was 95.1 µM (inactive); in assay [10], > 100 µM (inactive); in [11] it was 72.9 µM (inactive); in assay [12], > 100 µM (inactive); in assay [13], > 100 µM (inactive). For the same compound, the GI50 in assay [19] was > 100 µM (inactive); in [14], > 100 µM (inactive); in assay [15], 57.1 µM (inactive); in [16], > 100 µM (inactive); in assay [17] it was > 100 µM (inactive); in [18], > 100 µM (inactive).

Consider `c1ccc2c3c(c(N4CCNCC4)nc2c1)CCCC3`, for which the GI50 was 14.2 µM (inactive) in [1]; 14.8 µM (inactive) in [2]; 15.2 µM (inactive) in assay [3]; 21.6 µM (inactive) in [4]; 19.9 µM (inactive) in assay [5]; 8.15 µM (inactive) in assay [6]. Moreover, the GI50 is 16.7 µM (inactive) in [7]; 15.3 µM (inactive) in [8]; 13.7 µM (inactive) in [9]; 14.5 µM (inactive) in [10]; 10.7 µM (inactive) in [11]; 9.25 µM (inactive) in [12]. Moreover, the GI50 in assay [13] is 13.9 µM (inactive); in assay [19] it was 2.9 µM (inactive); in assay [14], 17 µM (inactive); in [15], 11.4 µM (inactive); in assay [16] it was 15.1 µM (inactive); in assay [17], 7.53 µM (inactive). For the same compound, in [18], the GI50 is 16.1 µM (inactive).

On to `C=CCOc1ccc(C2(c3ccc(OCC=C)cc3)C(=O)Nc3ccccc32)cc1`, for which the GI50 in assay [1], in assay [2], in [3], in assay [4], in assay [5] and in assay [6] was > 10 µM (inactive) each time. For the same compound, the GI50 in assay [7], in assay [8], in assay [9], in [10], in assay [11] and in assay [12] was > 10 µM (inactive) each time. Moreover, the GI50 in assay [13] is 9.31 µM (inactive); in [14] it was > 10 µM (inactive); in assay [15] it was > 10 µM (inactive); in [16] it was > 10 µM (inactive); in [17], > 10 µM (inactive); in assay [18], > 10 µM (inactive).

As for `CCN(CC)C(=S)SS(=O)(=O)c1ccc(C)cc1`, the GI50 was 17.4 µM (inactive) in [1]; 52 µM (inactive) in assay [2]; 55.2 µM (inactive) in [3]; 52.7 µM (inactive) in assay [4]; 20.4 µM (inactive) in [5]; 19.2 µM (inactive) in assay [6]. For the same compound, the GI50 in [7] is 16.2 µM (inactive); in assay [8] it was < 0.01 µM (active); in assay [9], > 100 µM (inactive); in assay [10], 34.7 µM (inactive); in assay [11], 16.9 µM (inactive); in [12], 17.7 µM (inactive). Also, the GI50 was 28.7 µM (inactive) in assay [13]; 20.7 µM (inactive) in assay [19]; 19.9 µM (inactive) in assay [14]; 31.5 µM (inactive) in assay [15]; > 100 µM (inactive) in [17].

For the compound `C=CCOc1cccc(C2(O)c3ccccc3C3=NCCCN32)c1` (stereo unspecified), the GI50 in assay [1] is 14.5 µM (inactive); in [2], 3.38 µM (inactive); in assay [3], 54.7 µM (inactive); in [5], 19.9 µM (inactive); in assay [6], 16 µM (inactive); in [7] it was 16.1 µM (inactive). In addition, the GI50 in assay [8] is 19.5 µM (inactive); in [9] it was 29.7 µM (inactive); in [10], 3.63 µM (inactive); in assay [11] it was 15.8 µM (inactive); in [12], 34.7 µM (inactive); in assay [13] it was > 100 µM (inactive). Besides, the GI50 in assay [19] was 13.8 µM (inactive); in assay [14] it was 11.9 µM (inactive); in [15], 13 µM (inactive); in [16], 5.6 µM (inactive); in assay [17], 3.77 µM (inactive); in assay [18], 10.2 µM (inactive).

The record behind these values is ChEMBL document CHEMBL1201862, “PubChem BioAssay data set” (2004).
